{"source": "patent US11976075B2", "about": "“Inhibitors of the MYST family of lysine acetyl transferases” (Isosterix, Inc., priority 2022, dated 2024)", "data": [{"target": "T1, Recombinant KAT6A/MOZ (488-778) protein (Homo sapiens, UniProt Q92794)", "T1 construct": "Recombinant KAT6A/MOZ (488-778) protein (Active motif, Catalog #81223); purchased Active Motif 81223", "T1 sequence (Q92794 488-778)": "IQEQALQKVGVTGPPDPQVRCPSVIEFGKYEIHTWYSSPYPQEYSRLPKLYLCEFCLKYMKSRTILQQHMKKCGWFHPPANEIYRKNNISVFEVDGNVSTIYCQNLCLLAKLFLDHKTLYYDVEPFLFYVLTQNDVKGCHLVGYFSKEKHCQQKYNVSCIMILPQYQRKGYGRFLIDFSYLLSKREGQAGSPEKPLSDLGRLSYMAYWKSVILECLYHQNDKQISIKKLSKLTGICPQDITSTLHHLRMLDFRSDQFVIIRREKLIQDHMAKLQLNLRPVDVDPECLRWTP", "assay": "Kat6a AlphaLISA Inhibition Screening Assay", "assay_type": "biochemical", "settings": "10′ pre-incubation; Table 2; read-out: Kat6A biochemical assay: IC50", "procedure": "(§1) The Kat6a inhibitory activity of test compounds was determined using an Alpha Screen-based detection method. The assay reactions were conducted in a volume of 10 μL in Alpha Plate, White 384 well plate (cat #6008280, Perkin Elmer). The enzymatic reactions were performed in assay buffer pH 8.0 (50 mM Tris-HCl, 0.1 mM EDTA, 0.01% Tween-20, 1 mM Dithiothreitol, 0.1% BSA (fatty acid free) and 330 nM TSA (Trichostatin A)). 10 μL reaction volume consisting of 25 nM of Recombinant KAT6A/MOZ (488-778) protein (Active motif, Catalog #81223), 400 nM Acetyl coenzyme A (Catalog #A2056, Sigma), 200 nM of Histone H3 peptide [(amino acids 1-21), biotin-labeled (BPS Biosciences, Catalog #52011,)] and a 10-point dose response curve for test/tool compounds were prepared. Enzyme and compounds solution were pre-incubated in assay plate for 60 or 10 min at room temperature then substrate and Acetyl coenzyme A solution were added to the plate. After addition, the plate was sealed with adhesive seals and incubated for 120 minutes at room temperature.\n(§2) After 120 minutes of incubation, 5 μL (10 μg/mL) of AlphaLISA anti-acetyl-Lysine acceptor beads (Perkin Elmer, Catalog #AL143C) were added to the plate and it was incubated for 60 minutes at room temperature. Then 10 μL (10 μg/mL) of Alpha Streptavidin donor beads (Perkin Elmer, Catalog #6760002S) were added to the plate which was further incubated for 60 minutes at room temperature. After incubation, the alpha signal was recorded by using Perkin Elmer Envision multi-mode reader.\n(§3) NA means the compound was not active at the concentration tested. […] NT means not tested.", "units": {"IC50": "µM"}, "values": [{"smiles": "C#CC(=O)NCc1ccc2cc(C(=O)NS(=O)(=O)c3ccccc3F)oc2c1", "note": "[Synthetic Example 11, N-((2-fluorophenyl)sulfonyl)-6-(propiolamidomethyl)benzofuran-2-carboxamide]", "IC50": "20 to 50"}, {"smiles": "C#CC(=O)NCc1ccn(Cc2cc(OC)c3c(NS(=O)(=O)CC4CCCCC4)noc3c2)n1", "note": "[Synthetic Example 8, N-((1-((3-((cyclohexylmethyl)sulfonamido)-4-methoxybenzo[d]isoxazol-6-yl)methyl)-1H-pyrazol-3-yl)methyl)propiolamide]", "IC50": "≤ 10"}, {"smiles": "C=CC(=O)NCc1ccnc(-c2cc(C)cc(C(=O)NNS(=O)(=O)c3ccccc3F)c2)c1", "note": "[compound 12]", "IC50": "≤ 10"}]}, {"target": "T1, Recombinant KAT6A/MOZ (488-778) protein", "assay": "Kat6a AlphaLISA Inhibition Screening Assay", "assay_type": "biochemical", "settings": "10′ pre-incubation; Table 3; read-out: Kat6A Biochemical assay: IC50", "procedure": "as §1, §2, §3", "units": {"IC50": "µM"}, "values": [{"smiles": "COc1cccc(OC)c1S(=O)(=O)Nc1n[nH]c2cc(Cn3cccn3)cc(OC)c12", "note": "[compound 125, N-(6-((1H-pyrazol-1-yl)methyl)-4-methoxy-1H-indazol-3-yl)-2,6-dimethoxybenzenesulfonamide]", "IC50": "≤ 10"}]}, {"target": "T1, Recombinant KAT6A/MOZ (488-778) protein", "assay": "Kat6a AlphaLISA Inhibition Screening Assay", "assay_type": "biochemical", "settings": "60′ pre-incubation; Table 2; read-out: Kat6A biochemical assay: IC50", "procedure": "as §1, §2, §3", "units": {"IC50": "µM"}, "values": [{"smiles": "C=CC(=O)NCc1ccnc(-c2cc(C)cc(C(=O)NNS(=O)(=O)c3c(OC)cccc3OC)c2)c1", "note": "[Synthetic Example 15, N-((2-(3-(2-((2,6-dimethoxyphenyl)sulfonyl)hydrazine-1-carbonyl)-5-methylphenyl)pyridin-4-yl)methyl)acrylamide]", "IC50": "≤ 10"}, {"smiles": "COC/C=C/C(=O)NCc1cnn(Cc2cc(OC)c3c(NS(=O)(=O)c4ccccc4OC)noc3c2)c1", "note": "[Synthetic Example 54, (E)-4-methoxy-N-((1-((4-methoxy-3-((2-methoxyphenyl)sulfonamido)benzo[d]isoxazol-6-yl)methyl)-1H-pyrazol-4-yl)methyl)but-2-enamide]", "IC50": "≤ 10"}, {"smiles": "COc1ccccc1S(=O)(=O)Nc1noc2cc(Cn3cc(C(=O)NCC#N)cn3)cc(OC)c12", "note": "[Synthetic Example 62, N-(cyanomethyl)-1-((4-methoxy-3-((2-methoxyphenyl)sulfonamido)benzo[d]isoxazol-6-yl)methyl)-1H-pyrazole-4-carboxamide]", "IC50": "≤ 10"}, {"smiles": "C=CC(=O)N(C)Cc1cnn(Cc2cc(OC)c3c(NS(=O)(=O)c4ccccc4OC)noc3c2)c1", "note": "[Synthetic Example 47, N-((1-((4-methoxy-3-((2-methoxyphenyl)sulfonamido)benzo[d]isoxazol-6-yl)methyl)-1H-pyrazol-4-yl)methyl)-N-methylacrylamide]", "IC50": "≤ 10"}, {"smiles": "C=CS(=O)(=O)N1CCC(c2ccnc(-c3cc(C)cc(C(=O)NNS(=O)(=O)c4ccccc4F)c3)c2)CC1", "note": "[Synthetic Example 42, 2-fluoro-N′-(3-methyl-5-(4-(1-(vinylsulfonyl)piperidin-4-yl)pyridin-2-yl)benzoyl)benzenesulfonohydrazide]", "IC50": "≤ 10"}, {"smiles": "C#CC(=O)NCc1cnn(Cc2cc(OC)c3c(NS(=O)(=O)c4ccc(C(=O)OC)cc4)noc3c2)c1", "note": "[Synthetic Example 38, methyl 4-(N-(4-methoxy-6-((4-(propiolamidomethyl)-1H-pyrazol-1-yl)methyl)benzo[d]isoxazol-3-yl)sulfamoyl)benzoate]", "IC50": "≤ 10"}]}, {"target": "T1, Recombinant KAT6A/MOZ (488-778) protein", "assay": "Kat6a AlphaLISA Inhibition Screening Assay", "assay_type": "biochemical", "settings": "60′ pre-incubation; Table 3; read-out: Kat6A Biochemical assay: IC50", "procedure": "as §1, §2, §3", "units": {"IC50": "µM"}, "values": [{"smiles": "C#CC(=O)N1Cc2cnn(Cc3cc(OC)c4c(NS(=O)(=O)c5cc(CC)ccc5OC)noc4c3)c2C1", "note": "[compound 99, 5-ethyl-2-methoxy-N-(4-methoxy-6-((5-propioloyl-5,6-dihydropyrrolo[3,4-c]pyrazol-1(4H)-yl)methyl)benzo[d]isoxazol-3-yl)benzenesulfonamide]", "IC50": "≤ 10"}, {"smiles": "C#CC(=O)N1CCN(c2nc(-c3cc(OC)c4c(NS(=O)(=O)c5c(OC)cccc5OC)noc4c3)cs2)CC1", "note": "[compound 97, 2,6-dimethoxy-N-(4-methoxy-6-(2-(4-propioloylpiperazin-1-yl)thiazol-4-yl)benzo[d]isoxazol-3-yl)benzenesulfonamide]", "IC50": "≤ 10"}, {"smiles": "C#CC(=O)NCCOCc1cc(OC)c2c(NS(=O)(=O)c3cc(CC)ccc3OC)noc2c1", "note": "[compound 88, N-(2-((3-((5-ethyl-2-methoxyphenyl)sulfonamido)-4-methoxybenzo[d]isoxazol-6-yl)methoxy)ethyl)propiolamide]", "IC50": "≤ 10"}, {"smiles": "C#CC(=O)N1CCN(c2ccnc(-c3cc(OC)c4c(NS(=O)(=O)c5c(OC)cccc5OC)noc4c3)c2)CC1", "note": "[compound 119, 2,6-dimethoxy-N-(4-methoxy-6-(4-(4-propioloylpiperazin-1-yl)pyridin-2-yl)benzo[d]isoxazol-3-yl)benzenesulfonamide]", "IC50": "≤ 10"}, {"smiles": "C#CC(=O)N1CCN(c2cccc(-c3cc(OC)c4c(NS(=O)(=O)CC5CCCCC5)noc4c3)c2)CC1", "note": "[compound 117, 1-cyclohexyl-N-(4-methoxy-6-(3-(4-propioloylpiperazin-1-yl)phenyl)benzo[d]isoxazol-3-yl) methanesulfonamide]", "IC50": "≤ 10"}, {"smiles": "C#CC(=O)N1CCN(c2cccc(-c3cc4onc(NS(=O)(=O)c5c(OC)cccc5OC)c4cc3C)c2)CC1", "note": "[compound 120, 2,6-dimethoxy-N-(5-methyl-6-(3-(4-propioloylpiperazin-1-yl)phenyl)benzo[d]isoxazol-3-yl) benzenesulfonamide]", "IC50": "≤ 10"}, {"smiles": "C#CC(=O)N1CCN(c2cccc(-c3cc(OC)c4c(NS(=O)(=O)c5ccccc5OC)noc4c3)c2)CC1", "note": "[compound 74, 2-methoxy-N-(4-methoxy-6-(3-(4-propioloylpiperazin-1-yl)phenyl)benzo[d]isoxazol-3-yl)benzenesulfonamide]", "IC50": "≤ 10"}, {"smiles": "COc1ccccc1S(=O)(=O)Nc1noc2cc(Cn3cc(CNS(=O)(=O)c4ccccc4)cn3)cc(OC)c12", "note": "[compound 79, 2-methoxy-N-(4-methoxy-6-((4-(phenylsulfonamidomethyl)-1H-pyrazol-1-yl)methyl)benzo[d]isoxazol-3-yl)benzenesulfonamide]", "IC50": "≤ 10"}, {"smiles": "C#CC(=O)N1CC[C@@H](OCc2cc(OC)c3c(NS(=O)(=O)c4cc(CC)ccc4OC)noc3c2)C1", "note": "[compound 110, (R)-5-ethyl-2-methoxy-N-(4-methoxy-6-(((1-propioloylpyrrolidin-3-yl)oxy)methyl)benzo[d]isoxazol-3-yl) benzenesulfonamide]", "IC50": "≤ 10"}, {"smiles": "C#CC(=O)N1CCCN(c2cccc(-c3cc(OC)c4c(NS(=O)(=O)c5c(OC)cccc5OC)noc4c3)c2)CC1", "note": "[compound 100, 2,6-dimethoxy-N-(4-methoxy-6-(3-(4-propioloyl-1,4-diazepan-1-yl)phenyl)benzo[d]isoxazol-3-yl)benzenesulfonamide]", "IC50": "≤ 10"}, {"smiles": "C#CC(=O)N1CCN(c2ccnc(-c3cc(C)cc(C(=O)NNS(=O)(=O)c4ccccc4F)c3)c2)CC1", "note": "[compound 103, 2-fluoro-N′-(3-methyl-5-(4-(4-propioloylpiperazin-1-yl)pyridin-2-yl)benzoyl) benzenesulfonohydrazide]", "IC50": "≤ 10"}, {"smiles": "CCc1ccc(OC)c(S(=O)(=O)Nc2noc3cc(Cn4cc(CNS(C)(=O)=O)cn4)cc(OC)c23)c1", "note": "[compound 116]", "IC50": "≤ 10"}, {"smiles": "C#CC(=O)NCCCOCc1cc(OC)c2c(NS(=O)(=O)c3cc(CC)ccc3OC)noc2c1", "note": "[compound 89, N-(3-((3-((5-ethyl-2-methoxyphenyl)sulfonamido)-4-methoxybenzo[d]isoxazol-6-yl)methoxy)propyl) propiolamide]", "IC50": "≤ 10"}, {"smiles": "COc1ccccc1S(=O)(=O)Nc1noc2cc(Cn3ncc4c3CN(S(=O)(=O)c3c(F)c(F)c(F)c(F)c3F)C4)cc(OC)c12", "note": "[compound 82]", "IC50": "≤ 10"}, {"smiles": "C#CC(=O)N1CCN(c2csc(-c3cc(OC)c4c(NS(=O)(=O)c5c(OC)cccc5OC)noc4c3)n2)CC1", "note": "[compound 118, 2,6-dimethoxy-N-(4-methoxy-6-(4-(4-propioloylpiperazin-1-yl)thiazol-2-yl)benzo[d]isoxazol-3-yl)benzenesulfonamide]", "IC50": "≤ 10"}]}]}
